Test systems include ACHN renal; DU-145 prostate; EKVX NSCLC; HL-60(TB) leukemia; HT29 colon; LOX IMVI melanoma; MDA-MB-231 breast; NCI-H460 lung; PC-3 prostate; SF-539 CNS; SK-MEL-5 melanoma; SW-620 colon; U251 CNS.
What all share (assay): inhibition of tumour cell growth, NCI panel, 48 h

From PubChem BioAssay (NCI) come the findings set out here.

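Exposure lasted 48 hours, with cells grown in 96-well plates and compounds tested at five concentrations. Definition used: TGI = concentration required for complete inhibition of growth.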

`Cc1ccc2c(=O)cc(-c3cccs3)[nH]c2n1`: the TGI with ACHN renal was above 100 µM; in the test with DU-145 prostate it was above 100 µM; with EKVX NSCLC it was above 100 µM; in the test with HL-60(TB) leukemia, 25.5 µM; in the test with HT29 colon it was above 70.9 µM; with LOX IMVI melanoma it was above 100 µM. For the same compound, the TGI with MDA-MB-231 breast was above 100 µM; with NCI-H460 lung it was above 100 µM; in the test on PC-3 prostate, above 95.8 µM; in the test on SF-539 CNS, 33.1 µM; in the test on SK-MEL-5 melanoma, above 81.9 µM; in the test on SW-620 colon, above 30.1 µM. The TGI in the test with U251 CNS was above 100 µM.

Consider `CCC1(C)N=C(c2cnccn2)NN1c1ccc(Cl)cc1` (stereo not drawn), for which the TGI in the test on ACHN renal, in the test on DU-145 prostate, with EKVX NSCLC, with HL-60(TB) leukemia, in the test with HT29 colon and in the test on LOX IMVI melanoma was above 100 µM throughout. Also, the TGI in the test on MDA-MB-231 breast, in the test with NCI-H460 lung, with PC-3 prostate, in the test with SF-539 CNS, in the test on SK-MEL-5 melanoma and with SW-620 colon was above 100 µM in each case. The TGI in the test on U251 CNS was above 100 µM.

On to `Nc1cccc(Nc2nc3ccccc3nc2NS(=O)(=O)c2ccccc2)c1`, for which the TGI with ACHN renal is above 100 µM; in the test on DU-145 prostate, above 100 µM; in the test on EKVX NSCLC it was above 100 µM; in the test on HL-60(TB) leukemia, 46.6 µM; in the test on HT29 colon, 62.6 µM; in the test on LOX IMVI melanoma, 47.3 µM. The TGI in the test with MDA-MB-231 breast came out at 36 µM; in the test on NCI-H460 lung, 71.1 µM; in the test with PC-3 prostate it was 49.7 µM; with SF-539 CNS it was 45.3 µM; in the test on SK-MEL-5 melanoma, 29.8 µM; with SW-620 colon, 44.2 µM. Also, the TGI in the test with U251 CNS is 35.3 µM.

On to `COc1ccc(Nc2nc(NS(=O)(=O)c3cc(C)c(Cl)cc3S)n[nH]2)cc1`, for which the TGI in the test with ACHN renal, with DU-145 prostate, with EKVX NSCLC, in the test with HL-60(TB) leukemia, with HT29 colon and with LOX IMVI melanoma was above 100 µM throughout. In addition, the TGI with MDA-MB-231 breast, in the test on NCI-H460 lung, in the test with PC-3 prostate, in the test with SF-539 CNS, in the test with SK-MEL-5 melanoma and with SW-620 colon was above 100 µM in each case. In the test with U251 CNS, this compound had a TGI above 100 µM.

In the case of `CCC(C#N)NC(=O)NC(C#N)CC` (stereo not drawn), the TGI in the test on ACHN renal, in the test with DU-145 prostate, in the test with EKVX NSCLC, in the test on HL-60(TB) leukemia, in the test on HT29 colon and with LOX IMVI melanoma was above 100 µM in each case. Moreover, the TGI in the test with MDA-MB-231 breast, in the test with NCI-H460 lung, in the test on PC-3 prostate, with SF-539 CNS, in the test on SK-MEL-5 melanoma and in the test with SW-620 colon was above 100 µM throughout. The compound also showed a TGI in the test with U251 CNS above 100 µM.

With `O=C(NCCCCCCNCc1cccc2ccccc12)Nc1cccc2ccccc12`, the TGI in the test with ACHN renal, in the test with DU-145 prostate, in the test with EKVX NSCLC, in the test with HL-60(TB) leukemia, in the test with HT29 colon and in the test with LOX IMVI melanoma was above 100 µM throughout. Moreover, the TGI in the test on MDA-MB-231 breast, in the test on NCI-H460 lung, with PC-3 prostate, with SF-539 CNS, in the test with SK-MEL-5 melanoma and in the test with SW-620 colon was above 100 µM throughout. The compound further showed a TGI in the test with U251 CNS above 100 µM.

On to `CCC1(C(=O)OC(C)(C)C)OC12C(C)CCCC2C` (stereo not drawn), for which the TGI in the test on ACHN renal was 54.2 µM; in the test on DU-145 prostate, above 100 µM; in the test on EKVX NSCLC, above 100 µM; in the test with HL-60(TB) leukemia, 37 µM; with HT29 colon, above 100 µM; in the test on LOX IMVI melanoma, 96.1 µM. The TGI in the test on MDA-MB-231 breast, in the test on NCI-H460 lung, in the test on PC-3 prostate, with SF-539 CNS, in the test with SK-MEL-5 melanoma and with SW-620 colon was above 100 µM in each case. Besides, the TGI with U251 CNS was above 100 µM.

On to `CN(C)Cc1cc(C(=O)/C=C/c2ccccc2Cl)cc(CN(C)C)c1O`, for which the TGI turned out to be 16.3 µM in the test on ACHN renal; 24.8 µM in the test with DU-145 prostate; 30.6 µM in the test with EKVX NSCLC; 27.2 µM with HL-60(TB) leukemia; 9.94 µM in the test on HT29 colon; 13.5 µM with LOX IMVI melanoma. Besides, the TGI in the test with MDA-MB-231 breast worked out at 24.6 µM; in the test with NCI-H460 lung, 18.5 µM; in the test with PC-3 prostate it was 29.2 µM; with SF-539 CNS, 34 µM; in the test on SK-MEL-5 melanoma it was 26.1 µM; in the test on SW-620 colon it was 17 µM. In the test with U251 CNS, this compound gave a TGI of 27 µM.

In the case of `N#C/C(=C\n1ccc(=O)[nH]c1=S)C(N)=O`, the TGI in the test with ACHN renal, in the test with DU-145 prostate, in the test with EKVX NSCLC, in the test with HL-60(TB) leukemia, in the test with HT29 colon and in the test with LOX IMVI melanoma was above 100 µM each time. The TGI in the test on MDA-MB-231 breast, in the test on NCI-H460 lung, in the test with PC-3 prostate, with SF-539 CNS, in the test with SK-MEL-5 melanoma and with SW-620 colon was above 100 µM in each case. Further, in the test with U251 CNS, the TGI was above 100 µM.

For `NP(=O)(OCC1=CC(=O)c2ccccc2C1=O)N(CCBr)CCBr` (stereo not drawn), the TGI was 15.7 µM in the test with ACHN renal; 18.1 µM with DU-145 prostate; 34.6 µM in the test with EKVX NSCLC; above 100 µM in the test with HL-60(TB) leukemia; 34.9 µM in the test with HT29 colon; 29.1 µM with LOX IMVI melanoma. The TGI with MDA-MB-231 breast is 27.2 µM; in the test on NCI-H460 lung, 16 µM; in the test on PC-3 prostate, 46 µM; with SF-539 CNS it was 18.7 µM; in the test with SK-MEL-5 melanoma, 3.21 µM; in the test with SW-620 colon, above 34.2 µM. Also, in the test with U251 CNS, the TGI came out at 28.7 µM.

Turning to `CCOC(=O)/C=C(\C(=O)OCC)n1cc(C)c(=O)n(Cc2cnnn2CCCCOC(C)=O)c1=O`, the TGI with ACHN renal was 4.83 µM; with DU-145 prostate, above 55.8 µM; with EKVX NSCLC, 25.2 µM; in the test with HL-60(TB) leukemia, 6.73 µM; with HT29 colon it was 21.3 µM; with LOX IMVI melanoma it was 18.9 µM. The TGI is 50.2 µM in the test on MDA-MB-231 breast; 65.7 µM in the test on NCI-H460 lung; above 71.3 µM in the test on PC-3 prostate; 5.66 µM in the test with SF-539 CNS; above 52.2 µM in the test on SK-MEL-5 melanoma; above 38.4 µM with SW-620 colon. In the test with U251 CNS, this compound returned a TGI of 49.2 µM.
